Experimental data as given in PMC6100501, “Evaluation of the Antimicrobial Activity and Cytotoxicity of Different Components of Natural Origin Present in Essential Oils” (Molecules : A Journal of Synthetic Chemistry and Natural …, 2018).
Values after ≈ are worked out from the molar mass of the structure shown. Read-outs that look alike come from different tables or passages of the source.

Tests used:
[1] = system: S. aureus ATCC 6538; conditions: cited from earlier work
[2] = system: S. aureus ATCC 25923; assay: MIC and MBC determination, broth microdilution method; format: cell-based; conditions: Staphylococcus aureus
Method: (§1) A Gram-negative model E. coli S17 strain was used, which was kindly donated by Dr. Jose Antonio Ainsa, exerting resistance to streptomycin as it is also widely used for transformation purposes. S. aureus ATCC 25923, well-known as not a resistant strain and used in susceptibility tests, was evaluated as a Gram-positive model. Both strains were initially grown overnight in TSB at 37 °C under shaking (150 rpm) obtaining, in the stationary growth phase, 10^8–10^9 CFU/mL. TSA was used for seeding bacteria in an incubator at 37 °C (Memmert, Schwabach, Germany) in order to calculate the bacteria growth (CFU/mL) after treatment with the EO-contained molecules.
(§2) Inhibitory and bactericidal concentrations of active EO molecules were tested in two bacteria cultures, E. coli and S. aureus, following the broth microdilution method. Liquid growth medium containing an inoculum of 10^5 CFU/mL and serial concentrations of the EO compounds (0.1–4 mg/mL) were used. EO compounds were solubilized in culture medium by adding Tween® 80 (1.5–2% v/v) prior to their serial dilution. Once bacteria suspension was in stationary growth (10^8–10^9 CFU/mL), it was further diluted to ~10^5 CFU/mL and added to different concentrations ([…]) of the antimicrobial agents. Then, samples were incubated for 24 h at 37 °C under shaking (150 rpm). After incubation, bacterial suspensions were diluted in PBS and spot-plated on TSA plates to count colonies after incubation at 37 °C for 24 h. Positive control (untreated bacteria) and negative control (chlorhexidine treated bacteria) samples were also tested.

[3] = system: E. coli S17 strain; assay: as above; format: cell-based; conditions: Escherichia coli, S17STRAIN, 24 h, 37 °C, average of 12 replicas
Method: as §1, §2

[4] = system: S. aureus ATCC 43300; conditions: cited from earlier work
[5] = system: fibroblasts; conditions: cited from earlier work
[6] = system: S. aureus biofilm; assay: Biofilm disruption: elimination of preformed biofilm (CFU/mL count); format: cell-based, Staphylococcus aureus; conditions: 0.5 mg/mL, 24 h, vs untreated biofilm
Method: S. aureus was grown overnight in TSB until stationary growth phase was reached. At this point, bacteria were adjusted to 10^7 CFU/mL and added to a MW96 microplate and incubated at 37 °C for 16 h without shaking. After incubation, culture medium was discarded and biofilms were washed twice with PBS. In order to determine biofilm formation, Calcofluor White Stain (50 µL) was added to each well and incubated 1 min in the dark at room temperature. After incubation, the stain was removed and biofilms were washed twice with PBS. Samples were air-dried in the dark to be further visualized in an inverted fluorescence microscope (Olympus IX81). The effects of EO molecules (0.25–1 mg/mL) to prevent the formation of biofilm and to disrupt an already formed S. aureus biofilm were studied. EO compounds were added to preformed biofilms and samples were incubated for 24 h at 37 °C without shaking. After incubation, biofilms were disrupted by sonication (15 min, 200 W; Ultrasons, JP Selecta, Barcelona, Spain). Samples were then diluted and seeded onto agar plates to count the viable colonies grown after 24 h of incubation at 37 °C.

[7] = system: E. coli and S. aureus; assay: Bactericidal mechanism by SEM, flow cytometry and confocal microscopy; format: cell-based, Escherichia coli, Staphylococcus aureus; conditions: treated at MIC and MBC for 24 h
Method: Bacteria morphology before and after treatment with EO molecules was analyzed by SEM as we previously reported. Briefly, logarithmic growth phase E. coli and S. aureus bacteria cultures (~10^5 CFU/mL) were treated with the selected EO compounds at MIC and MBC values and incubated overnight at 37 °C. Following incubation, samples were spin-dried at 600 g and washed twice in PBS (0.1 M). Bacteria were fixed in 2.5% glutaraldehyde for 90 min and subsequently filtered and dehydrated in ethanol solutions series (30, 50, 70, 80, 90, and 100%; twice for 15 min). Finally, samples were air-dried at room temperature and covered with Pt. SEM micrographs were acquired in a SEM Inspect F50 equipment (FEI Co., LMA-INA, Zaragoza, Spain).
In order to study the bactericidal mechanism of the different molecules present in EOs, E. coli and S. aureus bacteria samples (10^7 CFU/mL) were centrifuged at 4400× g for 10 min and resuspended in the different compound solutions at MIC and MBC concentrations following the protocols previously described. Control groups (not treated and chlorhexidine treated bacteria) were also analyzed. All samples were incubated overnight at 37 °C. After propidium iodide (25 µg/mL; Sigma-Aldrich, Munich, Germany) addition, samples were analyzed by flow cytometry in Gallios equipment (Beckman Coulter Company, Cell Separation and Cytometry Unit, CIBA, IIS Aragon, Zaragoza, Spain).
The Live/Dead®BacLight™ bacterial viability kit (Molecular Probes, Fisher Scientific, Hampton, USA) was used to detect bacteria membrane damage. The methodology is based on the double-staining by SYTO9 and propidium iodide as indicated by the manufacturer. […] Samples were then mounted on slides and visualized by confocal microscopy (Leica TCS SP2 Laser Scanning Confocal Microscope, Microscopy Unit, CIBA, IIS Aragon, Zaragoza, Spain). Control samples were also tested as described above.

[8] = system: S. aureus; conditions: cited from earlier work
[9] = system: macrophages (THP1 human monocytes differentiated with PMA); assay: Cytotoxicity, Blue Cell Viability assay; conditions: 24 h
Method: (§3) Human dermal fibroblasts, human epidermal keratinocytes (HaCaT), and THP1 human monocytes were used to evaluate the cytotoxic effects of EO-based compounds.
(§4) Fibroblasts and HaCaT were routinely grown in high-glucose DMEM supplemented with 10% FBS and antibiotic-antimycotic. Monocytes were cultured in RPMI 1640 supplemented with 10% FBS, 1% HEPES, 1% nonessential amino acids, 0.1% 2-mercaptoethanol 50 mM, 1% sodium pyruvate 100 mM, and antibiotic-antimycotic. Macrophages were obtained by the in vitro differentiation of monocytes by adding 1 µM PMA to the cell culture. All cell types were grown in a humidified atmosphere at 37 °C and 5% CO2.
(§5) The cytotoxicity was determined by measuring cell metabolism through the Blue Cell Viability assay. Cells were seeded on MW96 microplates and incubated with the tested molecules (0.004–0.125 mg/mL) for 24 h. Control samples (not treated and chlorhexidine treated) were also analyzed. Then, the reagent was added (10%) and cells were incubated for 4 h at 37 °C. The reduction of the dye by metabolically active cells was monitored in a microplate reader (Multimode Synergy HT Microplate Reader; Biotek, Winooski, WI, USA) at 535/590 nm ex/em. Cell viability was determined by interpolation of the emission data obtained from the treated samples and the control samples (not treated cells, 100% viability).

[10] = system: human epidermal keratinocytes (HaCaT); assay: Cytotoxicity, Blue Cell Viability assay; conditions: 24 h; for subcytotoxic dose: keratinocytes
Method: as §3, §4, §5

[11] = system: human dermal fibroblasts; assay: Cytotoxicity, Blue Cell Viability assay; conditions: 24 h
Method: as §3, §4, §5

[12] = system: S. aureus biofilm; assay: Inhibition of biofilm formation (CFU/mL count); format: cell-based, Staphylococcus aureus; conditions: added to bacteria suspension, 16 h; concentration not printed in the sentence (Figure 5B)
Method: To study the effects of the compounds present in the EOs on biofilm formation, those were added to bacterial suspensions (10^7 CFU/mL) in a MW96 microplate and incubated for 16 h at 37 °C without shaking. After incubation, planktonic cells were removed by washing them twice with PBS. Biofilm samples were then sonicated as described above and serially diluted to be further plated on agar. Viable bacteria (CFU/mL) were counted after 24 h of incubation at 37 °C.

[13] = system: intestinal cells; conditions: cited from earlier work
[14] = system: tumor cell lines; conditions: cited from earlier work
[15] = Cytotoxicity, Blue Cell Viability assay; conditions: human, human dermal fibroblasts
Method: as §3, §4, §5

[16] = system: human dermal fibroblasts, keratinocytes, and macrophages; conditions: 24 h
Method: as §3, §4, §5

[17] = ATCC25923, S. aureus, 24 h, 37 °C, average of 12 replicas, read-out: MBC
[18] = ATCC25923, S. aureus, 24 h, 37 °C, average of 12 replicas, read-out: MIC

SMILES	MBC [3] [µg/mL]	MIC [3] [µg/mL]	bactericidal mechanism [7]	subcytotoxic dose [10]	MBC [2, 17] [µg/mL]	MIC [2, 18] [µg/mL]	also measured
Cc1ccc(C(C)C)cc1O [Carvacrol]	400 (≈ 2.66 mM)	200 (≈ 1.33 mM)	membrane disruption	0.030 mg/mL			MIC ([1]; converted from 0.015% v/v): approximately 0.147 mg/mL; MIC ([1]; converted from 2.5 µL/mL): approximately 2.45 mg/mL; MIC ([1]; ref 18): 0.015 % v/v; MIC ([1]; ref 21): 2.5 µL/mL; MIC ([1]; ref 22): 0.4 mg/mL (≈ 2.66 mM); MBC ([2]; ATCC25923, 24 h): 300 µg/mL (≈ 2 mM); MIC ([2]; ATCC25923, 24 h): 200 µg/mL (≈ 1.33 mM); MIC [4]: 310 µg/mL (≈ 2.06 mM); concentration giving 50% viability ([5]; fibroblasts): ~ 5 µg/mL; reduction in bacteria growth (CFU/mL) of preformed biofilm [6]: 3 logs; MIC ([8]; lower end of literature range): approximately 0.15 mg/mL; MIC ([8]; upper end of literature range): 15000 µg/mL (≈ 99.9 mM); subcytotoxic concentration ([9]; macrophages): 0.090 mg/mL; concentration toxic to fibroblasts (affects viability) ([11]; viability below 70% (ISO 10993-5)): ≥ 90 µg/mL; decrease in posterior bacterial growth, compound added before biofilm formation [12]: ~6 logs; subcytotoxic concentration ([13]; intestinal cells): ~ 500 µM
O=C/C=C/c1ccccc1 [Cinnamaldehyde]	300 (≈ 2.27 mM)	200 (≈ 1.51 mM)	membrane disruption		500 (≈ 3.78 mM)	400 (≈ 3.03 mM)	subcytotoxic concentration [14]: ~ 10 µg/mL; reduction in bacteria growth (CFU/mL) of preformed biofilm [6]: around 2 logs; dose that reduces viability below 70% ([9]; human): 0.030 mg/mL; dose that reduces viability below 70% ([10]; human): 0.030 mg/mL; concentration toxic to fibroblasts (affects viability) ([11]; human): 15 µg/mL; decrease in posterior bacterial growth, compound added before biofilm formation [12]: 4 logs
[H]/N=C(\N/C(=N/[H])NCCCCCCNC(=N)NC(=N)Nc1ccc(Cl)cc1)Nc1ccc(Cl)cc1 [chlorhexidine, reference compound]				lower than 0.004 mg/mL			subcytotoxic concentration ([9]; human): lower than 0.004 mg/mL; viability at 24 h, 0.004 mg/mL [15]: > 70%; subcytotoxic concentration [16]: 0.004 mg/mL
Cc1ccc(C(C)C)c(O)c1 [Thymol]	300 (≈ 2 mM)	200 (≈ 1.33 mM)	membrane disruption	0.060 mg/mL	300 (≈ 2 mM)	200 (≈ 1.33 mM)	concentration giving 50% viability [5]: ~ 5 µg/mL; subcytotoxic concentration ([9]; human): 0.060 mg/mL; concentration toxic to fibroblasts (affects viability) ([11]; human): ≥ 90 µg/mL; subcytotoxic concentration [13]: ~ 500 µM
O=C(/C=C/c1ccc(O)c(O)c1)O[C@H](Cc1ccc(O)c(O)c1)C(=O)O [Rosmarinic acid]	> 4000	> 4000			4000 (≈ 11.1 mM)	2500 (≈ 6.94 mM)	
C=C1CC/C=C(\C)CC[C@@H]2[C@@H]1CC2(C)C [β-caryophyllene]	> 4000	> 4000			> 4000	> 4000	
CC(C)=CCC/C(C)=C/CC/C(C)=C/CC/C=C(\C)CC/C=C(\C)CCC=C(C)C [Squalene]	> 4000	> 4000			> 4000	> 4000	
C=CCc1ccc(O)c(OC)c1 [Eugenol]	500 (≈ 3.04 mM)	400 (≈ 2.44 mM)			1500 (≈ 9.13 mM)	1300 (≈ 7.92 mM)	
